{"source": "paper doi:10.1101/2024.07.07.602414v1", "about": "(bioRxiv, 2024)", "key": {"[1]": {"experiment": "Redox controlled droplet formation through LLPS", "assay_type": "physicochemical"}, "Droplet microstructure": {"experiment": "Droplet microstructure", "assay_type": "physicochemical", "settings": "CLSM and fast FLIM with SBD dye, 448 nm excitation"}, "[2]": {"experiment": "Encapsulation efficiency of guest fluorophores by droplets", "assay_type": "physicochemical"}, "[3]": {"assay_type": "physicochemical", "settings": "30 mg/mL, CLSM and fast FLIM"}}}
{"substance": "YCGY", "values": [{"measurement": "solubility in aqueous solution", "setting": "[1]; aqueous solution, words only", "value": "very good solubility"}, {"measurement": "state of the droplet emulsion after adding DTT", "setting": "[1]; oxidised peptide, then DTT, 5 mins at room temperature, CLSM / bright field", "value": "clear solution"}, {"measurement": "concentration at which the peptide still does not undergo LLPS", "setting": "[1]; reduced (thiol) peptide, aqueous solution", "value": 80000, "unit": "µg/mL"}]}
{"substance": "YRYY", "values": [{"measurement": "droplet microstructure (core-shell or homogeneous)", "setting": "Droplet microstructure", "value": "formed homogeneous droplets"}]}
{"substance": "WYWW", "values": [{"measurement": "behaviour of droplets when the fluorophores were added, pH 7.5", "setting": "[2]; pH 7.5, fluorophores added", "value": "tend to aggregates"}, {"measurement": "behaviour of droplets when the fluorophores were added, pH 9.0", "setting": "[2]; pH 9.0, fluorophores added", "value": "relatively stable"}]}
{"substance": "WCRY", "values": [{"measurement": "droplet microstructure before oxidation", "setting": "[3]; pH 7.5 (1 M NaOH), SBD dye", "value": "forms homogeneous droplets"}, {"measurement": "droplet microstructure after oxidation by H2O2", "setting": "[3]; pH 7.5, 1 μL H2O2 (1M), 5 mins at room temperature", "value": "transform into the multiphasic droplets"}]}
{"substance": "WGWW", "values": [{"measurement": "droplet microstructure (core-shell or homogeneous)", "setting": "Droplet microstructure", "value": "show similar results with the R group"}]}
{"substance": "YGYY", "values": [{"measurement": "droplet microstructure (core-shell or homogeneous)", "setting": "Droplet microstructure", "value": "show similar results with the R group"}]}
